1 compound from paper PMC5218480 (PLoS ONE, 2017) can be followed below.

This assay concerns MV-4-11 cells. In words: Gene expression microarray analysis (Affymetrix PrimeView) and GSEA. More on the design: RFU PODN (11730768_x_at) / Fold change /veh PODN (11730768_x_at) / RFU LINC00158 (11744669_a_at) / Fold change /veh LINC00158 (11744669_a_at) / RFU DUSP10 (11751237_a_at) / Fold change /veh DUSP10 (11751237_a_at) / RFU ID3 (11757404_x_at) / Fold change /veh ID3 (11757404_x_at) / RFU PLEKHG5 (11737974_s_at) / Fold change /veh PLEKHG5 (11737974_s_at) / RFU LRRC4B (11730491_at) / Fold change /veh LRRC4B (11730491_at) / RFU GIMAP4 (11747438_a_at) / Fold change /veh GIMAP4 (11747438_a_at) / RFU KRT8 (11758183_x_at) / Fold change /veh KRT8 (11758183_x_at) / RFU CNN1 (11734310_a_at) / Fold change /veh CNN1 (11734310_a_at) / RFU VPS37D (11726825_at) / Fold change /veh VPS37D (11726825_at) / RFU C10orf10 (11716522_x_at) / Fold change /veh C10orf10 (11716522_x_at) / RFU KIR2DL2 /// KIR2DL4 /// KIR2DL5A /// KIR2DL5B /// KIR2DS1 /// KIR2DS2 /// KIR2DS3 /// KIR2DS4 /// KIR3DL3 /// KIR3DL3 /// KIR3DS1 (11738374_at) / Fold change /veh KIR2DL2 /// KIR2DL4 /// KIR2DL5A /// KIR2DL5B /// KIR2DS1 /// KIR2DS2 /// KIR2DS3 /// KIR2DS4 /// KIR3DL3 /// KIR3DL3 /// KIR3DS1 (11738374_at) / RFU C1QL1 (11718748_at) / Fold change /veh C1QL1 (11718748_at) / RFU TMPRSS4 (11747572_a_at) / Fold change /veh TMPRSS4 (11747572_a_at) / RFU HAMP (11756126_x_at) / Fold change /veh HAMP (11756126_x_at) / RFU RNFT2 (11725882_a_at) / Fold change /veh RNFT2 (11725882_a_at) / RFU NR4A2 (11747474_a_at) / Fold change /veh NR4A2 (11747474_a_at) / RFU ABCC12 (11746883_a_at) / Fold change /veh ABCC12 (11746883_a_at) / RFU TMEM136 (11760407_x_at) / Fold change /veh TMEM136 (11760407_x_at) / RFU CLDN22 /// WWC2 (11732394_at) / Fold change /veh CLDN22 /// WWC2 (11732394_at) / RFU HLA-DPB1 (11760878_x_at) / Fold change /veh HLA-DPB1 (11760878_x_at) / RFU SPINT1 (11716480_a_at) / Fold change /veh SPINT1 (11716480_a_at) / RFU GAP43 (11754022_s_at) / Fold change /veh GAP43 (11754022_s_at) / RFU A4GNT (11735810_at) / Fold change /veh A4GNT (11735810_at) / RFU PRB3 (11715151_x_at) / Fold change /veh PRB3 (11715151_x_at) / RFU TUBB4B (11761932_at) / Fold change /veh TUBB4B (11761932_at) / RFU CAPN14 (11732068_a_at) / Fold change /veh CAPN14 (11732068_a_at) / RFU TMCC2 (11721928_a_at) / Fold change /veh TMCC2 (11721928_a_at) / RFU IRGQ (11745062_a_at) / Fold change /veh IRGQ (11745062_a_at) / RFU FAM174B (11720279_a_at) / Fold change /veh FAM174B (11720279_a_at) / RFU TMPRSS4 (11748680_a_at) / Fold change /veh TMPRSS4 (11748680_a_at) / RFU FAM212B (11763350_a_at) / Fold change /veh FAM212B (11763350_a_at) / RFU PLEKHG5 (11743358_a_at) / Fold change /veh PLEKHG5 (11743358_a_at) / RFU ZSCAN30 (11745921_a_at) / Fold change /veh ZSCAN30 (11745921_a_at) / RFU CMKLR1 (11741424_a_at) / Fold change /veh CMKLR1 (11741424_a_at) / RFU LOC101060620 /// MAPK8IP1 (11723275_at) / Fold change /veh LOC101060620 /// MAPK8IP1 (11723275_at) / RFU SPTSSB (11747773_x_at) / Fold change /veh SPTSSB (11747773_x_at) / RFU PRSS12 (11739890_at) / Fold change /veh PRSS12 (11739890_at) / RFU BIN1 (11741810_x_at) / Fold change /veh BIN1 (11741810_x_at) / RFU WNT11 (11732464_a_at) / Fold change /veh WNT11 (11732464_a_at) / RFU C10orf10 (11716521_a_at) / Fold change /veh C10orf10 (11716521_a_at) / RFU C5orf56 (11738089_at) / Fold change /veh C5orf56 (11738089_at) / RFU CYB561 (11721691_x_at) / Fold change /veh CYB561 (11721691_x_at) / RFU ANKRD19P (11752326_a_at) / Fold change /veh ANKRD19P (11752326_a_at) / RFU OR2T12 /// OR2T33 /// OR2T8 (11738714_s_at) / Fold change /veh OR2T12 /// OR2T33 /// OR2T8 (11738714_s_at) / RFU VCAN (11748164_a_at) / Fold change /veh VCAN (11748164_a_at) / RFU JSRP1 (11732532_at) / Fold change /veh JSRP1 (11732532_at) / RFU KRTAP10-11 (11738290_x_at) / Fold change /veh KRTAP10-11 (11738290_x_at) / RFU MYO3A (11730013_a_at) / Fold change /veh MYO3A (11730013_a_at) / RFU EBF3 (11725865_a_at) / Fold change /veh EBF3 (11725865_a_at) / RFU CAMK2N1 (11719241_x_at) / Fold change /veh CAMK2N1 (11719241_x_at) / RFU C5orf56 (11738088_a_at) / Fold change /veh C5orf56 (11738088_a_at) / RFU OLFML3 (11715873_a_at) / Fold change /veh OLFML3 (11715873_a_at) / RFU LOC100653217 /// NTM (11731650_a_at) / Fold change /veh LOC100653217 /// NTM (11731650_a_at) / RFU MAPK11 (11762145_a_at) / Fold change /veh MAPK11 (11762145_a_at) / RFU FIZ1 (11724087_x_at) / Fold change /veh FIZ1 (11724087_x_at) / RFU OASL (11726364_x_at) / Fold change /veh OASL (11726364_x_at) / RFU SOX15 (11748057_x_at) / Fold change /veh SOX15 (11748057_x_at) / RFU CD79A (11719716_a_at) / Fold change /veh CD79A (11719716_a_at) / RFU HIST1H1D (11736915_at) / Fold change /veh HIST1H1D (11736915_at) / RFU CASKIN2 (11723855_a_at) / Fold change /veh CASKIN2 (11723855_a_at) / RFU LOC730098 (11760151_x_at) / Fold change /veh LOC730098 (11760151_x_at) / RFU OR4N2 (11742367_at) / Fold change /veh OR4N2 (11742367_at) / RFU PRRT2 (11749266_a_at) / Fold change /veh PRRT2 (11749266_a_at) / RFU SNX32 (11753110_a_at) / Fold change /veh SNX32 (11753110_a_at) / RFU CDHR5 (11726645_a_at) / Fold change /veh CDHR5 (11726645_a_at) / RFU RCAN1 (11760418_a_at) / Fold change /veh RCAN1 (11760418_a_at) / RFU FAM167A (11723789_a_at) / Fold change /veh FAM167A (11723789_a_at) / RFU FAM26E (11764081_at) / Fold change /veh FAM26E (11764081_at) / RFU ISYNA1 (11749810_s_at) / Fold change /veh ISYNA1 (11749810_s_at) / RFU ACY1 (11761880_at) / Fold change /veh ACY1 (11761880_at) / RFU 11764098_at / Fold change /veh 11764098_at / RFU SAMD14 (11745864_x_at) / Fold change /veh SAMD14 (11745864_x_at) / RFU NPB (11741838_a_at) / Fold change /veh NPB (11741838_a_at) / RFU TMPRSS6 (11731388_a_at) / Fold change /veh TMPRSS6 (11731388_a_at) / RFU KRTAP10-2 (11738614_at) / Fold change /veh KRTAP10-2 (11738614_at) / RFU ARHGAP8 /// PRR5-ARHGAP8 (11727945_x_at) / Fold change /veh ARHGAP8 /// PRR5-ARHGAP8 (11727945_x_at) / RFU KRTAP5-7 /// NADSYN1 (11734609_at) / Fold change /veh KRTAP5-7 /// NADSYN1 (11734609_at) / RFU RASL12 (11751679_a_at) / Fold change /veh RASL12 (11751679_a_at) / RFU CDKN2B (11736163_a_at) / Fold change /veh CDKN2B (11736163_a_at) / RFU PRF1 (11729649_at) / Fold change /veh PRF1 (11729649_at) / RFU, ZNF638 /// ZNF638-IT1 / Fold change vs veh, ZNF638 /// ZNF638-IT1 / RFU, PANK3 / Fold change vs veh, PANK3 / RFU, SH3YL1 / Fold change vs veh, SH3YL1 / RFU, ZEB2 / Fold change vs veh, ZEB2 / RFU, NRIP1 / Fold change vs veh, NRIP1 / RFU, PTTG1IP / Fold change vs veh, PTTG1IP / RFU, CAPN2 / Fold change vs veh, CAPN2 / RFU, MED14 / Fold change vs veh, MED14 / RFU, SNORA58 / Fold change vs veh, SNORA58 / RFU, C1orf63 / Fold change vs veh, C1orf63 / RFU, LRRFIP1 / Fold change vs veh, LRRFIP1 / RFU, NDUFAF7 / Fold change vs veh, NDUFAF7 / RFU, SLC12A2 / Fold change vs veh, SLC12A2 / RFU, IBTK / Fold change vs veh, IBTK / RFU, ESF1 / Fold change vs veh, ESF1 / Fold change vs veh, TMEM50B / RFU, TAOK1 / Fold change vs veh, TAOK1 / RFU, ACBD3 / Fold change vs veh, ACBD3 / RFU, TMA16 / Fold change vs veh, TMA16 / RFU, RWDD3 / Fold change vs veh, RWDD3 / RFU, BCAT1 / Fold change vs veh, BCAT1 / RFU, EDEM3 / Fold change vs veh, EDEM3 / RFU, TMEM33 / Fold change vs veh, TMEM33 / RFU, WDR75 / Fold change vs veh, WDR75 / RFU, AHCTF1 / Fold change vs veh, AHCTF1 / RFU, TFRC / Fold change vs veh, TFRC / RFU, ZDHHC17 / Fold change vs veh, ZDHHC17 / RFU, NOM1 / Fold change vs veh, NOM1 / RFU, ARL8B / Fold change vs veh, ARL8B / RFU, ZBTB11 / Fold change vs veh, ZBTB11 / RFU, TAMM41 / Fold change vs veh, TAMM41 / RFU, KIAA1704 /// LOC100996395 / Fold change vs veh, KIAA1704 /// LOC100996395 / RFU, ING1 / Fold change vs veh, ING1 / RFU, TRMT61B / Fold change vs veh, TRMT61B / RFU, FUBP3 / Fold change vs veh, FUBP3 / RFU, TP53 / Fold change vs veh, TP53 / RFU, TNKS2 / Fold change vs veh, TNKS2 / RFU, ZFP14 / Fold change vs veh, ZFP14 / RFU, ACTR2 / Fold change vs veh, ACTR2 / RFU, PPP3R1 / Fold change vs veh, PPP3R1 / RFU, PIK3R1 / Fold change vs veh, PIK3R1 / RFU, HNRNPA1 / Fold change vs veh, HNRNPA1 / RFU, RNF170 / Fold change vs veh, RNF170 / RFU, ZNF28 / Fold change vs veh, ZNF28 / RFU, RNGTT / Fold change vs veh, RNGTT / RFU, OGT / Fold change vs veh, OGT / RFU, BRD1 / Fold change vs veh, BRD1 / RFU, MARS / Fold change vs veh, MARS / RFU, ZNF655 / Fold change vs veh, ZNF655 / RFU, FAHD1 / Fold change vs veh, FAHD1 / RFU, BDP1 / Fold change vs veh, BDP1 / RFU, LRRCC1 / Fold change vs veh, LRRCC1 / RFU, ARID1A / Fold change vs veh, ARID1A / RFU, ZNF146 / Fold change vs veh, ZNF146 / RFU, ZNF330 / Fold change vs veh, ZNF330 / RFU, GPN3 / Fold change vs veh, GPN3 / RFU, C9orf123 / Fold change vs veh, C9orf123 / RFU, N4BP2L2 / Fold change vs veh, N4BP2L2 / RFU, ARFIP1 / Fold change vs veh, ARFIP1 / RFU, FAM179B / Fold change vs veh, FAM179B / RFU, BCL10 / Fold change vs veh, BCL10 / RFU, UHRF1BP1L / Fold change vs veh, UHRF1BP1L / RFU, BET1 / Fold change vs veh, BET1 / RFU, CNOT2 / Fold change vs veh, CNOT2 / RFU, ZNF268 / Fold change vs veh, ZNF268 / Fold change vs veh, ZNF507 / RFU, DGCR2 / Fold change vs veh, DGCR2 / RFU, WDSUB1 / Fold change vs veh, WDSUB1 / Fold change vs veh, HSP90B1 /// MIR3652 / RFU, ADSS / Fold change vs veh, ADSS / RFU, GK / Fold change vs veh, GK / RFU, ZNF148 / Fold change vs veh, ZNF148 / RFU, TAF9 / Fold change vs veh, TAF9 / RFU, SLC1A5 / Fold change vs veh, SLC1A5 / RFU, SLMO2 / Fold change vs veh, SLMO2 / RFU, ABCC4 / Fold change vs veh, ABCC4 / RFU, LOC101060439 /// RAP1B / Fold change vs veh, LOC101060439 /// RAP1B / RFU, RFX7 / Fold change vs veh, RFX7 / RFU, GTPBP10 / Fold change vs veh, GTPBP10 / RFU, CNEP1R1 / Fold change vs veh, CNEP1R1 / RFU, BIVM-ERCC5 /// ERCC5 / Fold change vs veh, BIVM-ERCC5 /// ERCC5 / RFU, ILF3 / Fold change vs veh, ILF3 / RFU 11762660_at / Fold change /veh 11762660_at / RFU VCAN (11757783_s_at) / Fold change /veh VCAN (11757783_s_at) / RFU DDX43 (11728927_at) / Fold change /veh DDX43 (11728927_at) / RFU KRT8 (11758188_x_at) / Fold change /veh KRT8 (11758188_x_at) / RFU NKD1 (11759106_at) / Fold change /veh NKD1 (11759106_at) / RFU SRD5A1 (11742802_a_at) / Fold change /veh SRD5A1 (11742802_a_at) / RFU TPSAB1 /// TPSB2 (11721975_s_at) / Fold change /veh TPSAB1 /// TPSB2 (11721975_s_at) / RFU GSTM3 (11746129_a_at) / Fold change /veh GSTM3 (11746129_a_at) / RFU IL23R (11737362_x_at) / Fold change /veh IL23R (11737362_x_at) / RFU TMEM51 (11727254_a_at) / Fold change /veh TMEM51 (11727254_a_at) / RFU PIWIL2 (11732686_x_at) / Fold change /veh PIWIL2 (11732686_x_at) / RFU ORM1 (11744905_x_at) / Fold change /veh ORM1 (11744905_x_at) / RFU CCDC152 (11743942_at) / Fold change /veh CCDC152 (11743942_at) / RFU ECM1 (11717891_a_at) / Fold change /veh ECM1 (11717891_a_at) / RFU IL23R (11748794_a_at) / Fold change /veh IL23R (11748794_a_at) / RFU TNFAIP8L3 (11732012_x_at) / Fold change /veh TNFAIP8L3 (11732012_x_at) / RFU MBOAT4 (11741988_at) / Fold change /veh MBOAT4 (11741988_at) / RFU 11764193_at / Fold change /veh 11764193_at / RFU TMEM53 (11763286_at) / Fold change /veh TMEM53 (11763286_at) / RFU MAGEB2 (11727129_at) / Fold change /veh MAGEB2 (11727129_at) / RFU TMEM200A (11744735_a_at) / Fold change /veh TMEM200A (11744735_a_at) / RFU CCDC152 (11751479_a_at) / Fold change /veh CCDC152 (11751479_a_at) / RFU FAM211A (11726209_a_at) / Fold change /veh FAM211A (11726209_a_at) / RFU RGS16 (11746705_a_at) / Fold change /veh RGS16 (11746705_a_at) / RFU VCAN (11755009_s_at) / Fold change /veh VCAN (11755009_s_at) / RFU RHOB (11743442_s_at) / Fold change /veh RHOB (11743442_s_at) / RFU RGS16 (11720943_a_at) / Fold change /veh RGS16 (11720943_a_at) / RFU RGS16 (11720944_at) / Fold change /veh RGS16 (11720944_at) / RFU, VPS4B / Fold change vs veh, VPS4B / RFU, CREB1 / Fold change vs veh, CREB1 / RFU, DNAJC13 / Fold change vs veh, DNAJC13 / RFU, GNAQ / Fold change vs veh, GNAQ / RFU, CDK5R1 / Fold change vs veh, CDK5R1 / RFU, ZRANB3 / Fold change vs veh, ZRANB3 / RFU, CUL4A / Fold change vs veh, CUL4A / RFU, CCNY / Fold change vs veh, CCNY / RFU, UFL1 / Fold change vs veh, UFL1 / RFU, COG3 / Fold change vs veh, COG3 / RFU, DIAPH2 / Fold change vs veh, DIAPH2 / RFU, SKA2 / Fold change vs veh, SKA2 / RFU, AFF3 / Fold change vs veh, AFF3 / RFU, LMF1 / Fold change vs veh, LMF1 / RFU, IPO11 / Fold change vs veh, IPO11 / RFU, DFFB / Fold change vs veh, DFFB / RFU, FOXP1 / Fold change vs veh, FOXP1 / RFU, CARD8 / Fold change vs veh, CARD8 / RFU, STRN3 / Fold change vs veh, STRN3 / RFU, ADK / Fold change vs veh, ADK / RFU, RASSF2 / Fold change vs veh, RASSF2 / RFU, WIPF1 / Fold change vs veh, WIPF1 / RFU, LARP1B / Fold change vs veh, LARP1B / RFU, RASA1 / Fold change vs veh, RASA1 / RFU, RB1 / Fold change vs veh, RB1 / RFU, PPFIA1 / Fold change vs veh, PPFIA1 / RFU, MAT2A / Fold change vs veh, MAT2A / RFU, CCT5 / Fold change vs veh, CCT5 / RFU, WDR92 / Fold change vs veh, WDR92 / RFU, CUX1 / Fold change vs veh, CUX1 / RFU, TTC7A / Fold change vs veh, TTC7A / RFU, TMEM135 / Fold change vs veh, TMEM135 / RFU, DEPTOR / Fold change vs veh, DEPTOR / RFU, CPM / Fold change vs veh, CPM / RFU, DNAJB6 / Fold change vs veh, DNAJB6 / RFU, CACNA2D3 / Fold change vs veh, CACNA2D3 / RFU, DTX4 / Fold change vs veh, DTX4 / RFU, TFCP2 / Fold change vs veh, TFCP2 / RFU, GMCL1 /// GMCL1P1 / Fold change vs veh, GMCL1 /// GMCL1P1 / RFU, AEBP2 / Fold change vs veh, AEBP2 / RFU, SNHG1 /// SNORD22 /// SNORD25 /// SNORD26 /// SNORD27 /// SNORD28 /// SNORD29 /// SNORD31 / Fold change vs veh, SNHG1 /// SNORD22 /// SNORD25 /// SNORD26 /// SNORD27 /// SNORD28 /// SNORD29 /// SNORD31 / Fold change (Aza/veh), C12orf56 (ProbeSet 11735607_a_at) / Fold change (ACY-1035/veh), C12orf56 (ProbeSet 11735607_a_at) / Fold change (Aza/veh), FGFR1OP (ProbeSet 11751329_s_at) / Fold change (ACY-1035/veh), FGFR1OP (ProbeSet 11751329_s_at) / Fold change (Aza/veh), VPS36 (ProbeSet 11739960_a_at) / Fold change (ACY-1035/veh), VPS36 (ProbeSet 11739960_a_at) / RFU SYPL1 (11715823_x_at) / Fold change /veh SYPL1 (11715823_x_at) / RFU IGFBP7 (11715501_s_at) / Fold change /veh IGFBP7 (11715501_s_at) / RFU REEP3 (11722064_at) / Fold change /veh REEP3 (11722064_at) / RFU IGLL1 (11728026_x_at) / Fold change /veh IGLL1 (11728026_x_at): dose or concentration left out as unconfirmed. It counts as cell-based, human. The note with it: ProbeSet 11719632_a_at; LIST B.

For `Nc1ccc(-c2cccs2)cc1NC(=O)c1ccc2c(c1)cc(C1CC1)n2CCN1CCOCC1` [ACY-1035], the “RFU, ABCC4” value worked out at 40.19 RFU.
